Values quoted from earlier work, collected in US8968710B1, “Topical anesthetic” (priority 2005, dated 2015).

For CCCCNc1ccc(C(=O)OCCN(C)C)cc1 [Tetracaine], the “solubility in alcohol, ether, benzene and chloroform” value (alcohol, ether, benzene, chloroform) is listed as “soluble” and the solubility in water (water) is listed as “very slightly soluble”.
